Values of other authors as cited in patent publication US8716354B2 (priority 2003, dated 2014).

Details: intravenous injection of a therapeutic dose

**Q.** With `CC(C)c1cccc(C(C)C)c1O` [propofol, 2,6-diisopropylphenol] as the compound, how does the “Time to hypnosis from the start of injection” value read?
**A.** Its value is no more than 40 s.
